Measurements: ChEMBL document CHEMBL5725844, “Indazolyl thiadiazolamines and related compounds for inhibition of Rho-associated protein kinase and the treatment of disease” (2018)

Tests used:
[1] = molecular target: Rho-associated protein kinase 2 (Homo sapiens, UniProt O75116); assay: (§1) Protein constructs were purified from a baculovirus expression system. The peptide substrate was fluorescent LANCE® Ultra ULight-CREBtide: […] (PerkinElmer, # TRF0107-D). Kinase reactions were carried out in a 10 μL volume in 384-well plates: 50 nM ULight-CREBtide substrate, 2 nM constitutively active ROCK1 or ROCK2 kinase, and test compound in DMSO (or DMSO only for controls) were diluted into assay buffer containing 50 mM Tris-HCl (pH=7.5), 10 mM MgCl2, 1 mM EGTA, 0.01% Tween-20, and 2 mM DTT such that the final concentration of DMSO was 0.5%. After a 90 minute incubation at room temperature on a shaker table, the kinase reaction was stopped by addition of 10 mM EDTA, and phosphorylation of the substrate was detected by adding 1 nM LANCE® Ultra Europium-anti-phospho-CREB (ser133) antibody (PerkinElmer, # TRF0200-D) and incubating for 60 minutes on a shaker at room temperature. The flurorescence resonance energy transfer (FRET) signals were read and analyzed on an Envision¿ 2103 Multilabel Reader (Perkin Elmer).
Chain of Rho-associated protein kinase 2 (O75116 whole entry): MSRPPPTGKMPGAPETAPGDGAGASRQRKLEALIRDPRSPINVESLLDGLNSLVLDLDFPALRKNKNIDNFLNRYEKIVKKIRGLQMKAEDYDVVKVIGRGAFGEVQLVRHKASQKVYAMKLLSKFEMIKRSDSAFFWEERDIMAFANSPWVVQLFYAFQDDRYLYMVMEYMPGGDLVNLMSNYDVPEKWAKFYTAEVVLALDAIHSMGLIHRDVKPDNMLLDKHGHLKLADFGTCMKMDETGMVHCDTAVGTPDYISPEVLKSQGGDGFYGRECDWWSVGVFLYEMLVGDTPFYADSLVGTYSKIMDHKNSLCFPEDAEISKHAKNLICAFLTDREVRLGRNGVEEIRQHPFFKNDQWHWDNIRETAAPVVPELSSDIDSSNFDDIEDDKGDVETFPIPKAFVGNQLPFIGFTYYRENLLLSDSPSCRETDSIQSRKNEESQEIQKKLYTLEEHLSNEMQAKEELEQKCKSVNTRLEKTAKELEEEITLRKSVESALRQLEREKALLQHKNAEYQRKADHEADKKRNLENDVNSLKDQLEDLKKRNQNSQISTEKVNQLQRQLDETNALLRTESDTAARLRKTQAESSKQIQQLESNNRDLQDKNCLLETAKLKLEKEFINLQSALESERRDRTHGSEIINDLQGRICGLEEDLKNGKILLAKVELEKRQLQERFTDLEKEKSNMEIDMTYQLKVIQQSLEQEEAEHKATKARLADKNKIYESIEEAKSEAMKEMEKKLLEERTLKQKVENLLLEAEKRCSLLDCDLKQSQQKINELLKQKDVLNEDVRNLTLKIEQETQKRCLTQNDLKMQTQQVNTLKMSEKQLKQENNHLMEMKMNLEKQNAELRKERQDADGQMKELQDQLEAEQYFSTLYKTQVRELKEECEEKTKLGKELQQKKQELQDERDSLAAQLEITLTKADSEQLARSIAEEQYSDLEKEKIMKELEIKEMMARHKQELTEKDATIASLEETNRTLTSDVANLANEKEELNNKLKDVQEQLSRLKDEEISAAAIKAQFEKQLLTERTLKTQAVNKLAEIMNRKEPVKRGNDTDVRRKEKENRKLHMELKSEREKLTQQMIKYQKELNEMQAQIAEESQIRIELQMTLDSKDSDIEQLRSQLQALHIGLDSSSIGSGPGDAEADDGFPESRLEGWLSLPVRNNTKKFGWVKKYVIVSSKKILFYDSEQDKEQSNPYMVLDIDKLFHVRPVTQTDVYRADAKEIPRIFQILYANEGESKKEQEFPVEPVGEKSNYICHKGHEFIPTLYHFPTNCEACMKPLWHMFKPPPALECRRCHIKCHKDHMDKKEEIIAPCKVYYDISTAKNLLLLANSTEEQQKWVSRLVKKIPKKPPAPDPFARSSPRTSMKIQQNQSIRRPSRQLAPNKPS

[2] = molecular target: Rho-associated protein kinase 1 (Homo sapiens, UniProt Q13464); assay: as §1
Chain of Rho-associated protein kinase 1 (Q13464 whole entry): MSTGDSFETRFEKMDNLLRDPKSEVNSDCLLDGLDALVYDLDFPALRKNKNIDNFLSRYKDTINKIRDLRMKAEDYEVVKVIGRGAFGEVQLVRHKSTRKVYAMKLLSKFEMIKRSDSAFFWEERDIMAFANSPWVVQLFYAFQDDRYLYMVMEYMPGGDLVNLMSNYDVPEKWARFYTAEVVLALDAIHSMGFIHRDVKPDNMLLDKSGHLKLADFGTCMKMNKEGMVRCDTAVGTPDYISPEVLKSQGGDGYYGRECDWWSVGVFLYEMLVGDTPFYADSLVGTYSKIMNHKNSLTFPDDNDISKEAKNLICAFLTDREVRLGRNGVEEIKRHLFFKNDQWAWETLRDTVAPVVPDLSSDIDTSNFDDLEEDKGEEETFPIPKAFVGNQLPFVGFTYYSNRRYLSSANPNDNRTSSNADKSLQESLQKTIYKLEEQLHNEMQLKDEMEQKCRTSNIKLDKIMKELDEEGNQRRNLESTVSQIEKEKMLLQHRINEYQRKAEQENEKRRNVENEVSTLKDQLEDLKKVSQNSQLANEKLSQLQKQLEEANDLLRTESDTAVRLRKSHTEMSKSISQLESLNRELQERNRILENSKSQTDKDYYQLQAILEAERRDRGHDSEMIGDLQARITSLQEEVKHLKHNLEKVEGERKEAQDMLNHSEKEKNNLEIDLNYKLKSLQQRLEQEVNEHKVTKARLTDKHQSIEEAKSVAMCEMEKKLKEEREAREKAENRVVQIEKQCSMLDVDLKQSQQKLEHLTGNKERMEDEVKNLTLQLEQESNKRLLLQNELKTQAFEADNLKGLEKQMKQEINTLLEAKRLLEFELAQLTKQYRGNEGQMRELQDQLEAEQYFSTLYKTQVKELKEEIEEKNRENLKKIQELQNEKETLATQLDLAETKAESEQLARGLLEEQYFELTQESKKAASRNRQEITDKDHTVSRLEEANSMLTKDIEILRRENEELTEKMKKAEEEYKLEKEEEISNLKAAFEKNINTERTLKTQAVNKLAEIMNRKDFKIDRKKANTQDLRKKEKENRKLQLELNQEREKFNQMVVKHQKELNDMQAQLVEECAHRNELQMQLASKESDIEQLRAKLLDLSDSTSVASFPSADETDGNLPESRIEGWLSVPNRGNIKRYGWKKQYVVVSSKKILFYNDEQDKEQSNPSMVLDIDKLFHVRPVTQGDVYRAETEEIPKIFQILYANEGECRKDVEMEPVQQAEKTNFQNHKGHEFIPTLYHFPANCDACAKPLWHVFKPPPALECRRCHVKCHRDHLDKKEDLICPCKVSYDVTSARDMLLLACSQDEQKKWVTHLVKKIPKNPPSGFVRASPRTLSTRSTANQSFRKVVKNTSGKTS

SMILES | IC50 [1] [µM] | IC50 [2] [µM]
Clc1c(Nc2nnc(-c3cccc(-c4nccn4CCN4CCCC4)c3)s2)ccc2[nH]ncc12 | < 1 | > 30
CN(C)CCn1cnc2c(-c3nnc(Nc4ccc5[nH]ncc5c4Cl)s3)cccc21 | < 1 | < 1
COCCOC(=O)Nc1cc(-c2nnc(Nc3ccc4[nH]ncc4c3Cl)s2)ccn1 | < 1 | > 30
CCOC(=O)N(c1nnc(-c2cccc(NC(=O)Cc3ccc(F)cc3)c2)s1)c1ccc2[nH]ncc2c1Cl |  | > 30
Clc1c(Nc2nnc(-c3cccc4c3ncn4CCN3CCCC3)s2)ccc2[nH]ncc12 |  | > 30
Clc1c(Nc2nnc(-c3cccc(-c4nccn4CCN4CCOCC4)c3)s2)ccc2[nH]ncc12 | < 1 | < 1
CC(=O)Nc1cc(C)cc(-c2nnc(Nc3ccc4[nH]ncc4c3)s2)c1 | < 1 | > 30
Cc1cn2cccc(-c3nnc(Nc4ccc5[nH]ncc5c4Cl)s3)c2n1 | < 1 | < 1
N#Cc1ccc(-c2cn3cccc(-c4nnc(Nc5ccc6[nH]ncc6c5Cl)s4)c3n2)cc1 | < 1 | > 30
CC(=O)Nc1cccc(-c2nnc(Nc3ccc4[nH]ncc4c3)s2)c1 | < 1 | < 1
CCCCOC(=O)N(c1nnc(-c2cccc(NC(=O)Cc3ccc(F)cc3)c2)s1)c1ccc2[nH]ncc2c1Cl | < 1 | > 30
O=S(=O)(CCO)Nc1cccc(-c2nnc(Nc3ccc4[nH]ncc4c3)s2)c1 | < 1 | > 30
NCc1ccc(C(=O)Nc2cccc(-c3nnc(Nc4ccc5[nH]ncc5c4)s3)c2)cn1 | < 1 | < 1

Further lines, results first:

IC50 [1] [µM] | IC50 [2] [µM] | SMILES
< 1 |  | CC1(C(=O)Nc2cccc(-c3nnc(Nc4ccc5[nH]ncc5c4Cl)s3)c2)CCCCC1
< 1 | < 1 | O=C(CC(F)(F)F)Nc1cccc(-c2nnc(Nc3ccc4[nH]ncc4c3Cl)s2)c1
< 1 | < 1 | CC(C)(O)C(=O)Nc1cccc(-c2nnc(Nc3ccc4[nH]ncc4c3Cl)s2)c1
< 1 | < 1 | O=C(Nc1cccc(-c2nnc(Nc3ccc4[nH]ncc4c3Cl)s2)c1)C1CCCCC1
< 1 | < 1 | CC(=O)Nc1cccc(-c2nnc(Nc3ccc4[nH]ncc4c3Br)s2)c1
< 1 | < 1 | CC(=O)Nc1cc(C(=O)N2CCNCC2)cc(-c2nnc(Nc3ccc4[nH]ncc4c3Cl)s2)c1
< 1 | < 1 | CC(=O)Nc1cc(C(N)=O)cc(-c2nnc(Nc3ccc4[nH]ncc4c3Cl)s2)c1
< 1 |  | CN1CC(C(=O)Nc2cccc(-c3nnc(Nc4ccc5[nH]ncc5c4Cl)s3)c2)C1
< 1 | < 1 | CNC(=O)c1cc(NC(C)=O)cc(-c2nnc(Nc3ccc4[nH]ncc4c3Cl)s2)c1
< 1 | < 1 | CN1CCC(C(=O)Nc2cccc(-c3nnc(Nc4ccc5[nH]ncc5c4Cl)s3)c2)CC1
< 1 | > 30 | CC(=O)Nc1ccc(Cl)c(-c2nnc(Nc3ccc4[nH]ncc4c3Cl)s2)c1
< 1 | < 1 | CC(=O)Nc1cc(C(=O)NCCN(C)C)cc(-c2nnc(Nc3ccc4[nH]ncc4c3Cl)s2)c1
< 1 | < 1 | CC(=O)Nc1cc(C(=O)N2CCOCC2)cc(-c2nnc(Nc3ccc4[nH]ncc4c3Cl)s2)c1
< 1 | < 1 | CC(=O)Nc1cc(C(N)=O)cc(-c2nnc(Nc3ccc4[nH]ncc4c3)s2)c1
< 1 | > 30 | O=C(Nc1cccc(-c2nnc(Nc3ccc4[nH]ncc4c3Cl)s2)c1)C(F)(F)F
< 1 |  | O=C(Nc1cccc(-c2nnc(Nc3ccc4[nH]ncc4c3Cl)s2)c1)C1CCNCC1
